Assay results taken from US10125116B2, “Compounds and methods for treating mammalian gastrointestinal microbial infections” (Brandeis University, priority 2009, dated 2018).
Where two headings read alike, the source gives them in different places.

Tests used:
[1] = biological target: T1, recombinant C. parvum IMPDH (Cryptosporidium parvum, UniProt Q8T6T2); assay: C. parvum IMPDH inhibition (NADH production); assay type: biochemical
T1 construct: made in house; host or cells: bacteria (guaB strains of E. coli)
T1 sequence (Q8T6T2 1-400): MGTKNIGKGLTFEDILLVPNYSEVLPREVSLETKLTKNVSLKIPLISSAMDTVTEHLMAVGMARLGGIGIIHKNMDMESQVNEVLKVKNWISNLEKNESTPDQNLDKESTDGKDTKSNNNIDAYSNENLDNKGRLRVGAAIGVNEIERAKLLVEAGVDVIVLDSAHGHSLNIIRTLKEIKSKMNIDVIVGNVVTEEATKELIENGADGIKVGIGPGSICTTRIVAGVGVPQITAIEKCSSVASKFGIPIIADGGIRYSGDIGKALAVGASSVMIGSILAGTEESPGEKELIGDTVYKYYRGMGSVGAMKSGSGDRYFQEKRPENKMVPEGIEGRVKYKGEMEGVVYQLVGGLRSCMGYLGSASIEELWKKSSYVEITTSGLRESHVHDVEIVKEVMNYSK
Procedure: Recombinant C. parvum IMPDH was expressed in bacteria and purified as described previously [N. N. Umejiego et al., J Biol Chem 279, 40320-40327 (2004)].
Inhibitors at varying concentrations (25 pM-5 μM) were incubated with 10 nM C. parvum in assay buffer for 10 min at room temperature. The reaction was initiated by the addition of NAD and IMP for final concentrations of 300 μM and 150 μM, respectively. Selectivity was measured against human type II and T. foetus IMPDH at 25° C. in assay buffer. The former was assayed in the presence of 300 μM NAD 40 μM IMP and 160 nM human type II IMPDH, and the latter in the presence of 300 μM NAD 20 μM IMP and 28 nM T. foetus IMPDH. The production of NADH was monitored spectrophotometrically at 340 nm (=6.22 mM^−1 cm^−1) using a Hitachi U-2000 spectrophotometer.
IC50 values were calculated for each inhibitor according to the following equation: υi=υo/(1+[I]/IC50), using the SigmaPlot program (SPSS, Inc.).
The CpIMPDH inhibitory activity of the compounds was assessed by monitoring the production of NADH by fluorescence (FIG. 55). […]
Evaluation of Cp-IMPDH inhibitory activity for the various prepared compounds was conducted utilizing an assay measuring the conversion of IMP to XMP by monitoring the production of NADH by fluorescence emission in the presence of varying inhibitor concentrations. […]

T. gondii-CpIMPDH = T. gondii-CpIMPDH fluorescence growth assay; assay type: cell-based, Toxoplasma gondii
C. parvum [2] = assay: high content imaging C. parvum growth assay; assay type: cell-based, Cryptosporidium parvum
From the text: FIG. 58 depicts an overview and validation of the high content imaging C. parvum growth assay. A, schematic representation of differential labelling of parasite and host. B, detail of an exemplary micrograph obtained through the screening routine. Numbers indicate object identifies after segmentation analysis. […] For panel D, the ratio of the number of FITC-VVL labelled C. parvum parasites to DAPI labelled HCT-8 host cell nuclei was used to standardize each well and percent C. parvum growth (solid line) was normalized to parasites receiving DMSO alone. […] Paromomycin in addition to reducing parasite number also reduces the average size of the parasite (dashed line). The mean parasite area was measured per well for each treatment in triplicate. The percent area was then calculated by normalizing to the mean area of parasites receiving DMSO alone.
A direct and efficient assay of Cryptosporidium proliferation was also needed. Fluorescent Vicia villosa lectin (VVL) has been used previously to score C. parvum growth by fluorescence microscopy. VVL binds with high specificity to the C. parvum parasite, labelling sporozoites, intracellular stages, the inner oocyst wall, but not the outer oocyst wall. To accommodate the increasing number of compounds entering the SAR pipeline, we adapted the FITC-VVL immunofluorescence assay to a 96-well plate format and developed an automated imaging and analysis pipeline. […] Plates are fixed, permeabilized and stained with FITC-VVL and DAPI to numerate parasites and host cells, respectively. Using a spinning disc microscope, we imaged a […] of each well, providing a robust sample typically consisting of ˜6000 host cells and ˜2000 parasite stages. The instrument is programmed to automatically move from well to well, focus and acquire […] deep image stacks for the entire plate. A series of automated image compression, manipulation, and object-finding algorithms was optimized for the recognition of host cells and parasites using the DAPI and FITC channels. […]

HCT-8 cells = assay: fluorescent HCT-8 host cell growth assay; assay type: cell-based, human
From the text: The differentiation of selective antiparasitic effects from those that are a secondary consequence of a host cell effect is a critical issue in drug discovery for intracellular parasites. Cytotoxicity assays commonly reflect plasma membrane integrity, and are a crude measure of host cell effects—it is conceivable that more subtle perturbations of host cell metabolism can have an adverse effect on parasite proliferation. Therefore we sought to develop a simple and inexpensive assay of host cell growth. The human ileocecal adenocarcinoma epithelial cell line, HCT-8, which is commonly used to maintain C. parvum infection in tissue culture, was engineered to constitutively express a green fluorescent protein (GFP). Growth of this cell line was monitored daily using a fluorescent plate reader. […] These experiments validate the use of the fluorescent HCT-8 cell growth assay.
HCT-8 cells were transfected with the pmaxGFP plasmid (Amaxa) using Lipofectamine (Invitrogen) following the manufactures instruction. Fluorescent lines were then selected and cloned using FACS. Confluent monolayers of pmaxGFP expressing cells were harvested from T75 flasks and passed through a 40 μm cell strainer. Cells were then seeded at 4000 cells per well in a volume of 200 μL into black, optical quality, thin bottom, 96-well plates (DB Falcon). All test compounds were diluted in DMSO to prepare a 200× working stock for each dilution. Appropriate wells were spiked with 1 μl such that the final concentration of DMSO was 0.5%. The fluorescence was read daily with a SpectraMax M22/M2e (Molecular Devices) plate reader (Ex 485, Em 530) for 6-7 days. The percent inhibition was calculated on a day within the exponential phase of growth.

C. parvum [3] = conditions: read-out: reported EC50 C. parvum growth (previous studies); cited from earlier work

Row | Compound | CpIMPDH inhibition, result in words [1] | selective block of T. gondii-CpIMPDH growth, in words (T. gondii-CpIMPDH) | mean parasite area, in words (C. parvum [2]) | EC50 (C. parvum [2]; Cryptosporidium parvum, in HCT-8 host cells) | reduction in parasite number (C. parvum [2]; very high concentrations) | host cell (HCT-8) growth effect, in words (HCT-8 cells) | EC50 (C. parvum [3])
1 | O=C(Nc1ccc(Cl)cc1)C(Oc1cccc2ccccc12)c1ccccc1 (stereo not shown) [A66] | do not inhibit CpIMPDH in vitro | none of these compounds selectively blocked the growth | – | – | – | – | –
2 | NC[C@@H]1O[C@H](O[C@H]2[C@@H](O)[C@H](O[C@@H]3[C@@H](O)[C@H](N)C[C@H](N)[C@H]3O[C@H]3O[C@H](CO)[C@@H](O)[C@H](O)[C@H]3N)O[C@@H]2CO)[C@H](N)[C@@H](O)[C@@H]1O [paromomycin] | – | – | significantly reduce the mean parasite area in a dose responsive manner | 97 µM | ~70% | negligible effects on the growth of these cells | 65 to 130 µM
